Molecules are shown by their SMILES. Counter-ions that a name gives are not always drawn.

`O=C(NCC12CC3CC(CC(C3)C1)C2)c1cc(-c2nccnc2N2CCC(C(=O)O)CC2)ccc1Cl` [Example 34, 1-[3-[4-Chloro-3-[[(tricyclo[3.3.1.1^3,7]dec-1-ylmethyl)amino]carbonyl]phenyl]pyrazinyl]-4-piperidinecarboxylic acid]: the melting point – broadly, the temperature, or range, at which the solid turns liquid – is 136 to 140 °C. Then `O=C(O)COc1ccccc1-c1ccc(Cl)c(C(=O)NCC23CC4CC(CC(C4)C2)C3)c1` [Example 15, [[4′-Chloro-3′-[[(tricyclo[3.3.1.1^3,7]dec-1-ylmethyl)amino]carbonyl][1,1′-biphenyl]-2-yl]oxy]-acetic acid], with 208 to 210 °C; and `O=C(NCC12CC3CC(CC(C3)C1)C2)c1cc(-c2c(F)cccc2C(=O)O)ccc1Cl` [Example 35, 4′-Chloro-6-fluoro-3′-[[(tricyclo[3.3.1.1^3,7]dec-1-ylmethyl)amino]carbonyl]-[1,1′-biphenyl]-2-carboxylic acid], with 108 to 113 °C.

For `Cc1ccc(-c2cccc(C(=O)O)n2)cc1C(=O)NCC12CC3CC(CC(C3)C1)C2` [Example 69, 6-[4-Methyl-3-[[(tricyclo[3.3.1.1^3,7]dec-1-ylmethyl)amino]carbonyl]phenyl]-2-pyridinecarboxylic acid], the melting point was 227 °C. As for `Cc1ccc(-c2cccnc2C(=O)O)cc1C(=O)NCC12CC3CC(CC(C3)C1)C2` [Example 55, 3-[4-Methyl-3-[[(tricyclo[3.3.1.1^3,7]dec-1-ylmethyl)amino]carbonyl]phenyl]-2-pyridinecarboxylic acid], the figure is 181 to 183 °C; as for `O=C(NCC12CC3CC(CC(C3)C1)C2)c1cc(-c2ncccc2C(=O)O)ccc1Cl` [Example 10, 2-[4-Chloro-3-[[(tricyclo[3.3.1.1^3,7]dec-1-ylmethyl)amino]carbonyl]phenyl]-3-pyridinecarboxylic acid], 169 to 172 °C; as for `O=C(O)c1cccc(-c2ccc(Cl)c(C(=O)NCC34CC5CC(CC(C5)C3)C4)c2)c1` [Example 2, 4′-Chloro-3′-[[(tricyclo[3.3.1.1^3,7]dec-1-ylmethyl)amino]carbonyl]-[1,1′-biphenyl]-3-carboxylic acid], 255 to 257 °C. `Cc1ccc(C(=O)O)c(-c2ccc(Cl)c(C(=O)NCC34CC5CC(CC(C5)C3)C4)c2)n1` [Example 13, 2-[4-Chloro-3-[[(tricyclo[3.3.1.1^3,7]dec-1-ylmethyl)amino]carbonyl]phenyl]-6-methyl-3-pyridinecarboxylic acid] displayed a melting point of 209 to 211 °C. For the compound `Cc1cnc(C(=O)O)c(-c2ccc(Cl)c(C(=O)NCC34CC5CC(CC(C5)C3)C4)c2)c1` [Example 64, 3-[4-Chloro-3-[[(tricyclo[3.3.1.1^3,7]dec-1-ylmethyl)amino]carbonyl]phenyl]-5-methyl-2-pyridinecarboxylic acid], the melting point is 125 to 130 °C. Take `O=C(O)c1cc(C(F)(F)F)cc(-c2ccc(Cl)c(C(=O)NCC34CC5CC(CC(C5)C3)C4)c2)n1` [Example 72, 6-[4-Chloro-3-[[(tricyclo[3.3.1.1^3,7]dec-1-ylmethyl)amino]carbonyl]phenyl]-4-(trifluoromethyl)-2-pyridinecarboxylic acid]: the melting point is 220 to 225 °C. `O=C(O)CNc1ncccc1-c1ccc(Cl)c(C(=O)NCC23CC4CC(CC(C4)C2)C3)c1` [Example 26, N-[3-[4-Chloro-3-[[(tricyclo[3.3.1.1^3,7]dec-1-ylmethyl)amino]carbonyl]phenyl]-2-pyridinyl]-glycine]: the melting point was in the range of 160 to 164 °C. In turn, `C[C@H](Oc1cccc(-c2ccc(Cl)c(C(=O)NCC34CC5CC(CC(C5)C3)C4)c2)c1)C(=O)O` [Example 41, (2S)-2-[[4′-Chloro-3′-[[(tricyclo[3.3.1.1^3,7]dec-1-ylmethyl)amino]carbonyl][1,1′-biphenyl]-3-yl]oxy]-propanoic acid] gave a melting point of 115 to 120 °C.

In turn, `O=C(O)COc1cccc(-c2ccc(Cl)c(C(=O)NCC34CC5CC(CC(C5)C3)C4)c2)c1` [Example 38, [[4′-Chloro-3′-[[(tricyclo[3.3.1.1^3,7]dec-1-ylmethyl)amino]carbonyl][1,1′-biphenyl]-3-yl]oxy]-acetic acid] showed a melting point of 99 to 101 °C. As for `CN(CC(=O)O)c1nccnc1-c1ccc(Cl)c(C(=O)NCC23CC4CC(CC(C4)C2)C3)c1` [Example 33, N-[3-[4-Chloro-3-[[(tricyclo[3.3.1.1^3,7]dec-1-ylmethyl)amino]carbonyl]phenyl]pyrazinyl]-N-methyl-glycine], the figure is 151 to 153 °C (dec.); as for `CS(=O)(=O)Nc1nccnc1-c1ccc(Cl)c(C(=O)NCC23CC4CC(CC(C4)C2)C3)c1` [Example 8, 2-Chloro-5-[3-[(methylsulfonyl)amino)pyrazinyl]-N-(tricyclo[3.3.1.1^3,7]dec-1-ylmethyl)-benzamide], 245 °C (dec.). Then `O=C(NCC12CC3CC(CC(C3)C1)C2)c1cc(-c2ccc(Cl)c(C(=O)O)n2)ccc1Cl` [Example 44, 3-Chloro-6-[4-chloro-3-[[(tricyclo[3.3.1.1^3,7]dec-1-ylmethyl)amino]carbonyl]phenyl]-2-pyridinecarboxylic acid], with 154 to 159 °C; and `C[C@H](Oc1ccccc1-c1ccc(Cl)c(C(=O)NCC23CC4CC(CC(C4)C2)C3)c1)C(=O)O` [Example 14, (2S)-2-[[4′-chloro-3′-[[(tricyclo[3.3.1.1^3,7]dec-1-ylmethyl)amino]carbonyl][1,1′-biphenyl]-2-yl]oxy]-propanoic acid], with 107 to 110 °C; and `COc1ccc(-c2ccc(Cl)c(C(=O)NCC34CC5CC(CC(C5)C3)C4)c2)c(C(=O)O)c1` [Example 30, 4′-Chloro-4-methoxy-3′-[[(tricyclo[3.3.1.1^3,7]dec-1-ylmethyl)amino]carbonyl]-[1,1′-biphenyl]-2-carboxylic acid], with 219 to 221 °C. Then `CS(=O)(=O)Nc1cccc(-c2ccc(Cl)c(C(=O)NCC34CC5CC(CC(C5)C3)C4)c2)n1` [Example 27, 2-Chloro-5-[6-[(methylsulfonyl)amino]-2-pyridinyl]-N-(tricyclo[3.3.1.1^3,7]dec-1-ylmethyl)-benzamide], with 115 to 120 °C; and `O=C(NCC12CC3CC(CC(C3)C1)C2)c1cc(-c2ccc(F)cc2C(=O)O)ccc1Cl` [Example 51, 4′-Chloro-4-fluoro-3′-[[(tricyclo[3.3.1.1^3,7]dec-1-ylmethyl)amino]carbonyl]-[1,1′-biphenyl]-2-carboxylic acid], with 126 to 128 °C; and `N#CNc1nccnc1-c1ccc(Cl)c(C(=O)NCC23CC4CC(CC(C4)C2)C3)c1` [Example 5, 2-Chloro-5-[3-(cyanamino)pyrazinyl]-N-(tricyclo[3.3.1.1^3,7]dec-1-ylmethyl)-benzamide], with 110 to 115 °C (dec.). As for `Cn1ncc(-c2ccc(Cl)c(C(=O)NCC34CC5CC(CC(C5)C3)C4)c2)c1C(=O)O` [Example 32, 4-[4-Chloro-3-[[(tricyclo[3.3.1.1^3,7]dec-1-ylmethyl)amino]carbonyl]phenyl]-1-methyl-1H-pyrazole-5-carboxylic acid], the melting point is 187 to 190 °C (dec.). As for `Cc1ccc(-c2ccc(Cl)c(C(=O)NCC34CC5CC(CC(C5)C3)C4)c2)c(C(=O)O)c1` [Example 24, 4′-Chloro-4-methyl-3′-[[(tricyclo[3.3.1.1^3,7]dec-1-ylmethyl)amino]carbonyl]-[1,1′-biphenyl]-2-carboxylic acid], the figure is 214 to 216 °C; as for `O=C(NCC12CC3CC(CC(C3)C1)C2)c1cc(-c2cc(F)c(F)cc2C(=O)O)ccc1Cl` [Example 48, 4′-Chloro-4,5-difluoro-3′-[[(tricyclo[3.3.1.1^3,7]dec-1-ylmethyl)amino]carbonyl]-[1,1′-biphenyl]-2-carboxylic acid], 121 to 125 °C; as for `O=C(NCC12CC3CC(CC(C3)C1)C2)c1cc(-c2cc(F)cnc2N2CCC(C(=O)O)CC2)ccc1Cl` [Example 66, 1-[3-[4-Chloro-3-[[(tricyclo[3.3.1.1^3,7]dec-1-ylmethyl)amino]carbonyl]phenyl]-5-fluoro-2-pyridinyl]-4-piperidinecarboxylic acid], 130 to 135 °C. For `C[C@@H](Oc1ccccc1-c1ccc(Cl)c(C(=O)NCC23CC4CC(CC(C4)C2)C3)c1)C(=O)O` [Example 39, (2R)-2-[[4′-Chloro-3′-[[(tricyclo[3.3.1.1^3,7]dec-1-ylmethyl)amino]carbonyl][1,1′-biphenyl]-2-yl]oxy]-propanoic acid], the melting point is 133 to 137 °C. In turn, `Cc1ccc(-c2cccnc2N2CCC(C(=O)O)CC2)cc1C(=O)NCC12CC3CC(CC(C3)C1)C2` [Example 68, 1-[3-[4-Methyl-3-[[(tricyclo[3.3.1.1^3,7]dec-1-ylmethyl)amino]carbonyl]phenyl]-2-pyridinyl]-4-piperidinecarboxylic acid] showed a melting point of 60 °C. The compound `Cc1ccc(-c2ccc(Cl)c(C(=O)NCC34CC5CC(CC(C5)C3)C4)c2)c(C(=O)O)n1` [Example 63, 3-[4-Chloro-3-[[(tricyclo[3.3.1.1^3,7]dec-1-ylmethyl)amino]carbonyl]phenyl]-6-methyl-2-pyridinecarboxylic acid] yielded a melting point of 125 to 130 °C.

As for `O=C(NCC12CC3CC(CC(C3)C1)C2)c1cc(-c2ccsc2C(=O)O)ccc1Cl` [Example 19, 3-[4-Chloro-3-[[(tricyclo[3.3.1.1^3,7]dec-1-ylmethyl)amino]carbonyl]phenyl]-2-thiophenecarboxylic acid], the melting point was 140 to 143 °C. For `O=C(NCC12CC3CC(CC(C3)C1)C2)c1cc(-c2ncc(Cl)cc2C(=O)O)ccc1Cl` [Example 17, 5-Chloro-2-[4-chloro-3-[[(tricyclo[3.3.1.1^3,7]dec-1-ylmethyl)amino]carbonyl]phenyl]-3-pyridinecarboxylic acid], the melting point was in the range of 165 to 168 °C. Then `O=C(O)Cc1ncccc1-c1ccc(Cl)c(C(=O)NCC23CC4CC(CC(C4)C2)C3)c1` (as salt: sodium) [Example 58, 3-[4-Chloro-3-[[(tricyclo[3.3.1.1^3,7]dec-1-ylmethyl)amino]carbonyl]phenyl]-2-pyridineacetic acid, monosodium salt], with 186 to 187 °C (dec.).

The values are drawn from patent US20080153850A1, “Adamantyl Derivates as P2x7 Receptor Antagonists” (AstraZeneca AB, priority 2004, published 2008).
